From the NIST ThermoML archive (doi:10.1016/j.tca.2015.03.003)
± gives the expanded uncertainty stated by the source.

Test: molar heat capacity at constant pressure; xn = mol fraction of the nth substance listed
Conditions: 100 kPa, Small sample (50 mg) DSC

[Cl-].[K+] [potassium chloride] + [Cl-].[Na+]
Conditions	molar heat capacity at constant pressure [J/K/mol]
298.15 K, Crystal of unknown type, x1 = 0.1	48.78 ± 3
298.15 K, Crystal of unknown type, x1 = 0.2	51.33 ± 3.2
298.15 K, Crystal of unknown type, x1 = 0.3	49.46 ± 3
298.15 K, Crystal of unknown type, x1 = 0.4	50.77 ± 3.1
298.15 K, Crystal of unknown type, x1 = 0.5	51.13 ± 3.2
298.15 K, Crystal of unknown type, x1 = 0.6	48.93 ± 3
298.15 K, Crystal of unknown type, x1 = 0.7	50.73 ± 3.1
298.15 K, Crystal of unknown type, x1 = 0.75	50.05 ± 3.1
298.15 K, Crystal of unknown type, x1 = 0.8	50.46 ± 3.1
300 K, Crystal of unknown type, x1 = 0.1	48.81 ± 3
300 K, Crystal of unknown type, x1 = 0.2	51.36 ± 3.2
300 K, Crystal of unknown type, x1 = 0.3	49.49 ± 3
300 K, Crystal of unknown type, x1 = 0.4	50.8 ± 3.1
300 K, Crystal of unknown type, x1 = 0.5	51.16 ± 3.2
300 K, Crystal of unknown type, x1 = 0.6	48.96 ± 3
300 K, Crystal of unknown type, x1 = 0.7	50.76 ± 3.1
300 K, Crystal of unknown type, x1 = 0.75	50.07 ± 3.1
300 K, Crystal of unknown type, x1 = 0.8	50.47 ± 3.1
350 K, Crystal of unknown type, x1 = 0.1	49.61 ± 3.1
350 K, Crystal of unknown type, x1 = 0.2	52.11 ± 3.2
350 K, Crystal of unknown type, x1 = 0.3	50.24 ± 3.1
350 K, Crystal of unknown type, x1 = 0.4	51.4 ± 3.2
350 K, Crystal of unknown type, x1 = 0.5	51.77 ± 3.2
350 K, Crystal of unknown type, x1 = 0.6	49.81 ± 3.1
350 K, Crystal of unknown type, x1 = 0.7	51.51 ± 3.2
350 K, Crystal of unknown type, x1 = 0.75	50.42 ± 3.1
350 K, Crystal of unknown type, x1 = 0.8	50.87 ± 3.1
400 K, Crystal of unknown type, x1 = 0.1	50.41 ± 3.1
400 K, Crystal of unknown type, x1 = 0.2	52.86 ± 3.3
400 K, Crystal of unknown type, x1 = 0.3	50.99 ± 3.1
400 K, Crystal of unknown type, x1 = 0.4	52 ± 3.2
400 K, Crystal of unknown type, x1 = 0.5	52.39 ± 3.2
400 K, Crystal of unknown type, x1 = 0.6	50.66 ± 3.1
400 K, Crystal of unknown type, x1 = 0.7	52.26 ± 3.2
400 K, Crystal of unknown type, x1 = 0.75	50.77 ± 3.1
400 K, Crystal of unknown type, x1 = 0.8	51.27 ± 3.2
450 K, Crystal of unknown type, x1 = 0.1	51.21 ± 3.2
450 K, Crystal of unknown type, x1 = 0.2	53.61 ± 3.3
450 K, Crystal of unknown type, x1 = 0.3	51.74 ± 3.2
450 K, Crystal of unknown type, x1 = 0.4	52.6 ± 3.2
450 K, Crystal of unknown type, x1 = 0.5	53.01 ± 3.3
450 K, Crystal of unknown type, x1 = 0.6	51.51 ± 3.2
450 K, Crystal of unknown type, x1 = 0.7	53.01 ± 3.3
450 K, Crystal of unknown type, x1 = 0.75	51.12 ± 3.1
450 K, Crystal of unknown type, x1 = 0.8	51.67 ± 3.2
470 K, Crystal of unknown type, x1 = 0.1	51.53 ± 3.2
470 K, Crystal of unknown type, x1 = 0.2	53.91 ± 3.3
470 K, Crystal of unknown type, x1 = 0.3	52.04 ± 3.2
470 K, Crystal of unknown type, x1 = 0.4	52.84 ± 3.3
470 K, Crystal of unknown type, x1 = 0.5	53.25 ± 3.3
470 K, Crystal of unknown type, x1 = 0.6	51.85 ± 3.2
470 K, Crystal of unknown type, x1 = 0.7	53.31 ± 3.3
470 K, Crystal of unknown type, x1 = 0.75	51.26 ± 3.2
470 K, Crystal of unknown type, x1 = 0.8	51.83 ± 3.2
500 K, Crystal of unknown type, x1 = 0.1	52.01 ± 3.2
500 K, Crystal of unknown type, x1 = 0.2	54.36 ± 3.4
500 K, Crystal of unknown type, x1 = 0.3	52.49 ± 3.2
500 K, Crystal of unknown type, x1 = 0.4	53.2 ± 3.3
500 K, Crystal of unknown type, x1 = 0.5	53.63 ± 3.3
500 K, Crystal of unknown type, x1 = 0.6	52.36 ± 3.2
500 K, Crystal of unknown type, x1 = 0.7	53.76 ± 3.3
500 K, Crystal of unknown type, x1 = 0.75	51.47 ± 3.2
500 K, Crystal of unknown type, x1 = 0.8	52.07 ± 3.2
550 K, Crystal of unknown type, x1 = 0.1	52.81 ± 3.3
550 K, Crystal of unknown type, x1 = 0.2	55.11 ± 3.4
550 K, Crystal of unknown type, x1 = 0.3	53.24 ± 3.3
550 K, Crystal of unknown type, x1 = 0.4	53.8 ± 3.3
550 K, Crystal of unknown type, x1 = 0.5	54.24 ± 3.3
550 K, Crystal of unknown type, x1 = 0.6	53.21 ± 3.3
550 K, Crystal of unknown type, x1 = 0.7	54.51 ± 3.4
550 K, Crystal of unknown type, x1 = 0.75	51.82 ± 3.2
550 K, Crystal of unknown type, x1 = 0.8	52.47 ± 3.2
600 K, Crystal of unknown type, x1 = 0.1	53.61 ± 3.3
600 K, Crystal of unknown type, x1 = 0.2	55.86 ± 3.4
600 K, Crystal of unknown type, x1 = 0.3	53.99 ± 3.3
600 K, Crystal of unknown type, x1 = 0.4	54.4 ± 3.4
600 K, Crystal of unknown type, x1 = 0.5	54.86 ± 3.4
600 K, Crystal of unknown type, x1 = 0.6	54.06 ± 3.3
600 K, Crystal of unknown type, x1 = 0.7	55.26 ± 3.4
600 K, Crystal of unknown type, x1 = 0.75	52.17 ± 3.2
600 K, Crystal of unknown type, x1 = 0.8	52.87 ± 3.3
635 K, Crystal of unknown type, x1 = 0.8	53.15 ± 12
635 K, Crystal, x1 = 0.8	52.52 ± 12
650 K, Crystal of unknown type, x1 = 0.1	54.41 ± 13
650 K, Crystal of unknown type, x1 = 0.2	56.61 ± 13
650 K, Crystal of unknown type, x1 = 0.3	54.74 ± 13
650 K, Crystal of unknown type, x1 = 0.4	55 ± 13
650 K, Crystal of unknown type, x1 = 0.5	55.48 ± 13
650 K, Crystal of unknown type, x1 = 0.6	54.91 ± 13
650 K, Crystal of unknown type, x1 = 0.7	56.01 ± 13
650 K, Crystal of unknown type, x1 = 0.75	52.52 ± 12
650 K, Crystal, x1 = 0.8	52.97 ± 12
683 K, Crystal of unknown type, x1 = 0.75	52.75 ± 12
683 K, Crystal, x1 = 0.75	55.25 ± 13
687 K, Crystal of unknown type, x1 = 0.7	56.56 ± 13
687 K, Crystal, x1 = 0.7	53.53 ± 12
700 K, Crystal of unknown type, x1 = 0.1	55.21 ± 13
700 K, Crystal of unknown type, x1 = 0.2	57.36 ± 13
700 K, Crystal of unknown type, x1 = 0.3	55.49 ± 13
700 K, Crystal of unknown type, x1 = 0.4	55.6 ± 13
700 K, Crystal of unknown type, x1 = 0.5	56.1 ± 13
700 K, Crystal of unknown type, x1 = 0.6	55.76 ± 13
700 K, Crystal, x1 = 0.7	54.17 ± 12
700 K, Crystal, x1 = 0.75	56.4 ± 13
700 K, Crystal, x1 = 0.8	54.47 ± 13
733 K, Crystal of unknown type, x1 = 0.6	56.32 ± 13
733 K, Crystal, x1 = 0.6	56.77 ± 13
739 K, Crystal of unknown type, x1 = 0.1	55.83 ± 13
739 K, Crystal, x1 = 0.1	55.59 ± 13
750 K, Crystal of unknown type, x1 = 0.2	58.11 ± 13
750 K, Crystal of unknown type, x1 = 0.3	56.24 ± 13
750 K, Crystal of unknown type, x1 = 0.4	56.2 ± 13
750 K, Crystal of unknown type, x1 = 0.5	56.71 ± 13
750 K, Crystal, x1 = 0.1	55.9 ± 13
750 K, Crystal, x1 = 0.6	57.39 ± 13
750 K, Crystal, x1 = 0.7	56.62 ± 13
750 K, Crystal, x1 = 0.75	59.8 ± 14
750 K, Crystal, x1 = 0.8	55.97 ± 13
753 K, Crystal of unknown type, x1 = 0.2	58.15 ± 13
753 K, Crystal, x1 = 0.2	59.47 ± 14
757 K, Crystal of unknown type, x1 = 0.5	56.8 ± 13
757 K, Crystal, x1 = 0.5	57.77 ± 13
769 K, Crystal of unknown type, x1 = 0.4	56.42 ± 13
769 K, Crystal, x1 = 0.4	56.84 ± 13
771 K, Crystal of unknown type, x1 = 0.3	56.56 ± 13
771 K, Crystal, x1 = 0.3	57.44 ± 13
800 K, Crystal, x1 = 0.1	57.3 ± 13
800 K, Crystal, x1 = 0.2	61.35 ± 14
800 K, Crystal, x1 = 0.3	58.49 ± 13
800 K, Crystal, x1 = 0.4	58.24 ± 13
800 K, Crystal, x1 = 0.5	59.38 ± 14
800 K, Crystal, x1 = 0.6	59.19 ± 14
800 K, Crystal, x1 = 0.7	59.07 ± 14
800 K, Crystal, x1 = 0.75	63.2 ± 15
800 K, Crystal, x1 = 0.8	57.47 ± 13
850 K, Crystal, x1 = 0.1	58.7 ± 14
850 K, Crystal, x1 = 0.2	63.35 ± 15
850 K, Crystal, x1 = 0.3	60.29 ± 14
850 K, Crystal, x1 = 0.4	60.49 ± 14
850 K, Crystal, x1 = 0.5	61.26 ± 14
850 K, Crystal, x1 = 0.6	60.99 ± 14
850 K, Crystal, x1 = 0.7	61.52 ± 14
850 K, Crystal, x1 = 0.75	66.6 ± 15
850 K, Crystal, x1 = 0.8	58.97 ± 14
900 K, Crystal, x1 = 0.1	60.1 ± 14
900 K, Crystal, x1 = 0.2	65.35 ± 15
900 K, Crystal, x1 = 0.3	62.09 ± 14
900 K, Crystal, x1 = 0.4	62.74 ± 14
900 K, Crystal, x1 = 0.5	63.13 ± 15
900 K, Crystal, x1 = 0.6	62.79 ± 14
900 K, Crystal, x1 = 0.7	63.97 ± 15
900 K, Crystal, x1 = 0.75	70 ± 16
900 K, Crystal, x1 = 0.8	60.47 ± 14
930 K, Crystal, x1 = 0.5	64.25 ± 15
930 K, Liquid, x1 = 0.5	81.03 ± 19
950 K, Liquid, x1 = 0.5	82.5 ± 19
1000 K, Liquid, x1 = 0.5	86.19 ± 20
1050 K, Liquid, x1 = 0.5	89.88 ± 21
1100 K, Liquid, x1 = 0.5	93.56 ± 22
